# Source: US10829520B2, “Beta-hairpin peptidomimetics” (POLYPHOR AG, priority 2015, dated 2020)
# Where a SMILES comes first, the peptide text is derived from it. Bridges are numbered along the chain shown (N, C = ends). Roman numbers before positions name the chains, in order. [ ]: non-standard residue; d: D form. Tle = CC(C)(C)[C@H](N)C(=O)O; dDab = NCC[C@@H](N)C(=O)O; Nle = CCCC[C@H](N)C(=O)O; Orn = NCCC[C@H](N)C(=O)O; Dab = NCC[C@H](N)C(=O)O; Aib = CC(C)(N)C(=O)O
# What was measured:
# Type in all cases: cell-based
# [1] = test system: Escherichia coli ATCC 25922; settings: ATCC 25922
# Outline: (§1)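 Read-out is the minimal inhibitory concentration in μg/mL, taken as the lowest peptide level without visible growth after 18-20 h at 35° C. Testing followed CLSI broth microdilution in cation-adjusted Mueller-Hinton II broth plus 0.002% Polysorbate 80, with roughly 10^6 CFU/mL.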
# [2] = test system: Acinetobacter baumannii DSM 30008; settings: DSM 30008
# Outline: as §1
# [3] = test system: Escherichia coli 926415; settings: 926415
# [4] = test system: Klebsiella pneumoniae SSI #3010; settings: SSI #3010
# Outline: as §1
# [5] = test system: Klebsiella pneumoniae 968733; settings: 968733
# [6] = test system: Pseudomonas aeruginosa ATCC 27853; settings: ATCC 27853
# Outline: as §1
# [7] = test system: Acinetobacter baumannii 872842; settings: 872842
# [8] = test system: human red blood cells (hRBC); assay: Hemolysis of human red blood cells; settings: red cells of human, 1 h
# Outline: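 Hemolysis was read as supernatant absorbance at 540 nm and expressed as a percentage of Triton X-100 (2.5%) lysis. Washed human red cells (20% v/v) had been exposed to each peptide at 100 μg/mL for 1 h at 37° C.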
SMILES,Escherichia coli ATCC 25922 MIC [1],Acinetobacter baumannii DSM 30008 MIC [2],Escherichia coli 926415 MIC [3],Klebsiella pneumoniae SSI #3010 MIC [4],Klebsiella pneumoniae 968733 MIC [5],Pseudomonas aeruginosa ATCC 27853 MIC [6],Acinetobacter baumannii 872842 MIC [7],Hemolysis at 100 μg/mL ([8]; 100 μg/mL),Hemolysis at 100 μg/mL [8]; 100
CCCC[C@@H]1NC(=O)[C@@H]2CCCN2C(=O)[C@H]2CCCN2C(=O)[C@H](CO)NC(=O)[C@H](CO)NC(=O)[C@H](C(C)(C)C)NC(=O)[C@H](CCN)NC(=O)[C@H](Cc2c[nH]c3ccccc23)NC(=O)[C@@H](N)CSSC[C@@H](C(=O)N[C@@H](Cc2ccc(O)cc2)C(=O)N[C@H](CCN)C(=O)N[C@H]2CCNC(=O)[C@H]([C@@H](C)O)NC(=O)[C@H](CCN)NC(=O)[C@H](CCN)NC(=O)[C@H](CC(C)C)NC(=O)[C@@H](Cc3ccccc3)NC(=O)[C@H](CCN)NC2=O)NC(=O)[C@H](CCCN)NC(=O)[C@H](CCN)NC(=O)[C@H](Cc2ccc(O)cc2)NC(=O)[C@H](CO)NC1=O [Ex. 201] (H-CW[Dab][Tle]SS[dP]P[Nle]SY[Dab][Orn]CY[dDab][Dab][Dab][dF]L[Dab][Dab]T; disulfide 1-14; lactam 17-C),0.25 µg/mL,1 µg/mL,0.5 µg/mL,1 µg/mL,8 µg/mL,1 µg/mL,0.5 µg/mL,<1%,
CCCC[C@@H]1NC(=O)[C@@H]2CCCN2C(=O)[C@H]2CCCN2C(=O)[C@H](CO)NC(=O)[C@H](C)NC(=O)[C@H](C(C)(C)C)NC(=O)[C@@H](NC(=O)[C@H](Cc2c[nH]c3ccccc23)NC(C)=O)CSSC[C@@H](C(=O)N[C@@H](CCCN)C(=O)N[C@@H](CCN)C(=O)N[C@H]2CCNC(=O)[C@H]([C@@H](C)O)NC(=O)[C@H](CCN)NC(=O)[C@H](CCN)NC(=O)[C@H](CC(C)C)NC(=O)[C@@H](CC(C)C)NC(=O)[C@H](CCN)NC2=O)NC(=O)[C@H](Cc2ccc(O)cc2)NC(=O)[C@H](CO)NC1=O [Ex. 54] (Ac-WC[Tle]AS[dP]P[Nle]SYC[Orn][Dab][Dab][Dab][dL]L[Dab][Dab]T; disulfide 2-11; lactam 14-C),0.25 µg/mL,0.5 µg/mL,1 µg/mL,0.5 µg/mL,4 µg/mL,2 µg/mL,1 µg/mL,1%,
CCCC[C@@H]1NC(=O)[C@@H]2CCCN2C(=O)[C@H]2CCCN2C(=O)[C@H](CO)NC(=O)[C@H](C)NC(=O)[C@H](C(C)(C)C)NC(=O)[C@H](CCN)NC(=O)[C@H](Cc2c[nH]c3ccccc23)NC(=O)[C@H](CCN)NC(=O)[C@H](CCC(=O)N[C@@H](CCN)C(=O)N[C@H]2CCNC(=O)[C@H]([C@@H](C)O)NC(=O)[C@H](CCN)NC(=O)[C@H](CCN)NC(=O)[C@H](CC(C)C)NC(=O)[C@@H](Cc3ccccc3)NC(=O)[C@H](CCN)NC2=O)NC(=O)[C@H](CCCN)NC(=O)[C@H](CCN)NC(=O)[C@H](Cc2ccc(O)cc2)NC(=O)[C@H](CO)NC1=O [Ex. 3] (I: cyclo([Nle]SY[Dab][Orn]E[Dab]W[Dab][Tle]AS[dP]P) / II: [Dab][Dab][Dab][dF]L[Dab][Dab]T; amide I:6-II:N; lactam II:2-II:C),0.5 µg/mL,1 µg/mL,0.25 µg/mL,0.5 µg/mL,1 µg/mL,0.25 µg/mL,2 µg/mL,,<1%
CCCC[C@@H]1NC(=O)[C@@H]2CCCN2C(=O)[C@H]2CCCN2C(=O)[C@H](CO)NC(=O)[C@H](C)NC(=O)[C@H](C(C)(C)C)NC(=O)[C@H](CCN)NC(=O)[C@H](Cc2c[nH]c3ccccc23)NC(=O)[C@H](CCN)NC(=O)[C@H](CCC(=O)N[C@@H](CCN)C(=O)N[C@H](CCN)C(=O)N[C@H]2CCNC(=O)[C@H]([C@@H](C)O)NC(=O)[C@H](CCN)NC(=O)[C@H](CCN)NC(=O)[C@H](CC(C)C)NC(=O)[C@@H](Cc3ccccc3)NC(=O)[C@H](CCN)NC2=O)NC(=O)[C@H](CCCN)NC(=O)[C@H](CCN)NC(=O)[C@H](Cc2ccc(O)cc2)NC(=O)[C@H](CO)NC1=O [Ex. 74] (I: cyclo([Nle]SY[Dab][Orn]E[Dab]W[Dab][Tle]AS[dP]P) / II: [Dab][dDab][Dab][Dab][dF]L[Dab][Dab]T; amide I:6-II:N; lactam II:3-II:C),2 µg/mL,1 µg/mL,1 µg/mL,1 µg/mL,2 µg/mL,1 µg/mL,4 µg/mL,,2%
CCCC[C@@H]1NC(=O)[C@@H]2CCCN2C(=O)[C@H]2CCCN2C(=O)[C@H](CO)NC(=O)[C@H](CO)NC(=O)[C@H](C(C)(C)C)NC(=O)[C@@H](NC(=O)[C@@H](N)Cc2c[nH]c3ccccc23)CSSC[C@@H](C(=O)N[C@@H](CCCN)C(=O)N[C@H](C)C(=O)N[C@H](CCN)C(=O)N[C@H]2CCNC(=O)[C@H]([C@@H](C)O)NC(=O)[C@H](CCN)NC(=O)[C@H](CCN)NC(=O)[C@H](CC(C)C)NC(=O)[C@@H](Cc3ccccc3)NC(=O)[C@H](CCN)NC2=O)NC(=O)[C@H](Cc2ccc(O)cc2)NC(=O)[C@H](CO)NC1=O [Ex. 104] (H-WC[Tle]SS[dP]P[Nle]SYC[Orn][dA][dDab][Dab][Dab][dF]L[Dab][Dab]T; disulfide 2-11; lactam 15-C),0.25 µg/mL,0.5 µg/mL,0.25 µg/mL,0.5 µg/mL,1 µg/mL,1 µg/mL,0.25 µg/mL,3%,
CCCC[C@@H]1NC(=O)[C@@H]2CCCN2C(=O)[C@H]2CCCN2C(=O)[C@H](CO)NC(=O)[C@H](C)NC(=O)[C@H](C(C)(C)C)NC(=O)[C@@H](NC(=O)[C@H](Cc2c[nH]c3ccccc23)NC(C)=O)CSSC[C@@H](C(=O)NC(C)(C)C(=O)N[C@@H](CCN)C(=O)N[C@H](C(=O)N[C@@H](CCN)C(=O)N[C@H]2CCNC(=O)[C@H]([C@@H](C)O)NC(=O)[C@H](CCN)NC(=O)[C@H](CCN)NC(=O)[C@H](CC(C)C)NC(=O)[C@@H](Cc3ccccc3)NC(=O)[C@H](CCN)NC2=O)[C@@H](C)O)NC(=O)[C@H](Cc2ccc(O)cc2)NC(=O)[C@H](CO)NC1=O [Ex. 30] (Ac-WC[Tle]AS[dP]P[Nle]SYC[Aib][Dab]T[Dab][Dab][Dab][dF]L[Dab][Dab]T; disulfide 2-11; lactam 16-C),0.25 µg/mL,0.25 µg/mL,1 µg/mL,0.25 µg/mL,0.25 µg/mL,0.5 µg/mL,1 µg/mL,<1%,
